Source: patent US9102675B2, “3-Cyanoaryl-1H-pyrrolo[2,3-B] pyridine derivatives” (MERCK PATENT GMBH, priority 2011, dated 2015)

Legend:
IKKε = target: T1, IKKε (Homo sapiens, UniProt Q14164); test: IKKε kinase assay (384-well flashplate assay); type: biochemical; conditions: 10 μM ATP, 1 nM IKKε; read-out: IKKε enzyme assay IC50
T1 sequence (Q14164 1-716): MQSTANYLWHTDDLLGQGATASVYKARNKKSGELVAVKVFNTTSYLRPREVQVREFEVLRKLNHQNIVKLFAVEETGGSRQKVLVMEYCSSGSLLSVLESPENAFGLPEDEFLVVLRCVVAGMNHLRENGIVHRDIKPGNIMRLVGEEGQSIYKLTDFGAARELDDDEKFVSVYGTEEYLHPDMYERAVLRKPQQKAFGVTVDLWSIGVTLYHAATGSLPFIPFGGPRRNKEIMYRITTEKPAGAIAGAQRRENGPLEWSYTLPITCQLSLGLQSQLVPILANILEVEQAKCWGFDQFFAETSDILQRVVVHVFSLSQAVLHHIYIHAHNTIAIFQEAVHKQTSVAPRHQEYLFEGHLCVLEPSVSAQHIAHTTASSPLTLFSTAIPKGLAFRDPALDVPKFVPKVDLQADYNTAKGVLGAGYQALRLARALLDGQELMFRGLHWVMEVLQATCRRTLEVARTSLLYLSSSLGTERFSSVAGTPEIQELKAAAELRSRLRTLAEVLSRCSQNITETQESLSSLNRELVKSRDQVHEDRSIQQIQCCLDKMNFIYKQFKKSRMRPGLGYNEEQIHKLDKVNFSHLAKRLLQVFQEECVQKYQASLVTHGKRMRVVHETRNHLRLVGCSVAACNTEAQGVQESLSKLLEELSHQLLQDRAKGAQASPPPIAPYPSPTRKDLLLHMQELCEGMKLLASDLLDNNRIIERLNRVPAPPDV
Protocol: Test for the Inhibition of IKKε
IKKε—Kinase Assay (IKKepsilon)
(§1) The kinase assay is performed as 384-well flashplate assay (for example for Topcount measurement).
1 nM IKKε, 800 nM biotinylated IκKα(19-42) peptide (Biotin-C6-C6-[…]) and 10 μM ATP (spiked with 0.3 μCi of ^33P-ATP/well) are incubated at 30° C. for 2 hours in a total volume of 50 μl (10 mM MOPS, 10 mM Mg acetate, 0.1 mM EGTA, 1 mM dithiothreitol, 0.02% of Brij35, 0.1% of BSA, 0.1% of BioStab, pH 7.5) with or without test compound. The reaction is stopped using 25 μl of 200 mM EDTA. After 30 min at room temperature, the liquid is removed, and each well is washed three times with 100 μl of 0.9% sodium chloride solution. Non-specific reaction is determined in the presence of 3 μM MSC2119074 (BX-795). The radioactivity is measured using a Topcount (Perkin Elmer). The results (for example IC50 values) are calculated using program tools provided by the IT Department (for example AssayExplorer, Symyx).

[1] = target: T2, TANK binding kinase (TBK1) (Homo sapiens, UniProt Q9UHD2); test: TBK1 enzyme assay (384-well flashplate kinase assay); type: biochemical; conditions: 10 μM ATP, 0.6 nM TBK1
T2 sequence (Q9UHD2 1-729): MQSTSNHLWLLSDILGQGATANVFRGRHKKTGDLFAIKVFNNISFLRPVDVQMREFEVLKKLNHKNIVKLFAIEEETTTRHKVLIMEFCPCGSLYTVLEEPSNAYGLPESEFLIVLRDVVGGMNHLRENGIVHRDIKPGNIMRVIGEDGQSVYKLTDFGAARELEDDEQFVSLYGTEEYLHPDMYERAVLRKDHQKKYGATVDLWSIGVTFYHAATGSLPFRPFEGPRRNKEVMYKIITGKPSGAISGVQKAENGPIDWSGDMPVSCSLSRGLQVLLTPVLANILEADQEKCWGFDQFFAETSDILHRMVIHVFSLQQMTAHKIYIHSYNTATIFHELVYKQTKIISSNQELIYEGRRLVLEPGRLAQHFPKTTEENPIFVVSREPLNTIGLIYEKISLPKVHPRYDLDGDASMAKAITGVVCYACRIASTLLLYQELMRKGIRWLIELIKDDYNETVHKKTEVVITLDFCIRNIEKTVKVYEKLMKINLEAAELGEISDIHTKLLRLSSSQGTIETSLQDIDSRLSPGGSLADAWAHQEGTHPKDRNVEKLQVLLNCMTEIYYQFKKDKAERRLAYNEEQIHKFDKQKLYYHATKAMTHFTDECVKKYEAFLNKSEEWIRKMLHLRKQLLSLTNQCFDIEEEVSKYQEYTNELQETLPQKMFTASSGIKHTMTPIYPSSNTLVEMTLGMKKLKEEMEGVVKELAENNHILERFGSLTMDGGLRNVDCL
Protocol: Test for the Inhibition of TBK1
as §1
0.6 nM TANK binding kinase (TBK1), 800 nM biotinylated MELK-derived peptide (biotin-Ah-Ah-[…]) and 10 μM ATP (spiked with 0.25 μCi of ^33P-ATP/well) are incubated at 30° C. for 120 min in a total volume of 50 μl (10 mM MOPS, 10 mM Mg acetate, 0.1 mM EGTA, 1 mM DTT, 0.02% of Brij35, 0.1% of BSA, pH 7.5) with or without test compound. The reaction is stopped with 25 μl of 200 mM EDTA. After 30 min at room temperature, the liquid is removed, and each well is washed three times with 100 μl of 0.9% sodium chloride solution. Non-specific reaction is measured in the presence of 100 nM staurosporine. The radioactivity is measured in a Topcount (PerkinElmer). The results (for example IC50 values) are calculated using program tools provided by the IT Department (for example Assay-Explorer, Symyx). Cell Test

Compound | IC50 (IKKε) | IC50 [1]
N#Cc1cc(-c2c[nH]c3ncccc23)ccc1OC1CCOCC1 [Compound A1, 5-(1H-pyrrolo[2,3-b]pyridin-3-yl)-2-tetrahydropyran-4-yloxybenzonitrile] | < 300 nM | < 300 nM
Cn1cc(-c2cnc3[nH]cc(-c4ccc(OC5CCOCC5)c(C#N)c4)c3c2)cn1 [Compound A4, 5-[5-(1-methylpyrazol-4-yl)-1H-pyrrolo[2,3-b]pyridin-3-yl]-2-tetrahydropyran-4-yloxybenzonitrile] | < 300 nM | < 300 nM
N#Cc1cc(-c2c[nH]c3ncc(-c4cnn(CCN5CCOCC5)c4)cc23)ccc1OC1CCOCC1 [Compound A7, 5-[5-[1-(2-morpholinoethyl)pyrazol-4-yl]-1H-pyrrolo[2,3-b]pyridin-3-yl]-2-tetrahydropyran-4-yloxybenzonitrile] | < 300 nM | < 300 nM
N#Cc1cc(-c2c[nH]c3ncc(-c4ccc(N5CCOCC5)cc4)cc23)ccc1OC1CCOCC1 [Compound A8, 5-[5-(4-morpholinophenyl)-1H-pyrrolo[2,3-b]pyridin-3-yl]-2-tetrahydropyran-4-yloxybenzonitrile] | < 300 nM | < 300 nM
N#Cc1cc(-c2c[nH]c3ncc(-c4cnn(CCN5CCCC5)c4)cc23)ccc1OC1CCOCC1 [Compound A9, 5-[5-[1-(2-pyrrolidin-1-ylethyl)pyrazol-4-yl]-1H-pyrrolo[2,3-b]pyridin-3-yl]-2-tetrahydropyran-4-yloxybenzonitrile] | < 300 nM | < 300 nM
COCCn1cc(-c2cnc3[nH]cc(-c4ccc(OC5CCOCC5)c(C#N)c4)c3c2)cn1 [Compound A10, 5-[5-[1-(2-methoxyethyl)pyrazol-4-yl]-1H-pyrrolo[2,3-b]pyridin-3-yl]-2-tetrahydropyran-4-yloxybenzonitrile] | < 300 nM | < 300 nM
N#Cc1cc(-c2c[nH]c3ncc(-c4cnn(C5CCNCC5)c4)cc23)ccc1OC1CCOCC1 [Compound A12, 5-[5-(1-piperidin-4-yl-1H-pyrazol-4-yl)-1H-pyrrolo[2,3-b]pyridin-3-yl]-2-(tetrahydropyran-4-yloxy)benzonitrile] | < 300 nM | < 300 nM
CN1CCC(Oc2ccc(-c3c[nH]c4ncc(-c5cnn(C)c5)cc34)cc2C#N)CC1 [Compound A13, 2-(1-methylpiperidin-4-yloxy)-5-[5-(1-methyl-1H-pyrazol-4-yl)-1H-pyrrolo[2,3-b]pyridin-3-yl]benzonitrile] | < 300 nM | < 300 nM
N#Cc1cc(-c2c[nH]c3ncc(-c4cnn(CCO)c4)cc23)ccc1OC1CCOCC1 [Compound A15, 5-[5-[1-(2-hydroxyethyl)pyrazol-4-yl]-1H-pyrrolo[2,3-b]pyridin-3-yl]-2-tetrahydropyran-4-yloxybenzonitrile] | < 300 nM | < 300 nM
CN1CCC(n2cc(-c3cnc4[nH]cc(-c5ccc(OC6CCOCC6)c(C#N)c5)c4c3)cn2)CC1 [Compound A16, 5-[5-[1-(1-methyl-4-piperidyl)pyrazol-4-yl]-1H-pyrrolo[2,3-b]pyridin-3-yl]-2-tetrahydropyran-4-yloxybenzonitrile] | < 300 nM | < 300 nM
CN1CCN(c2cnc3[nH]cc(-c4ccc(OC5CCOCC5)c(C#N)c4)c3c2)CC1 [Compound A17, 5-[5-(4-methylpiperazin-1-yl)-1H-pyrrolo[2,3-b]pyridin-3-yl]-2-tetrahydropyran-4-yloxybenzonitrile] | 300 to 3000 nM | 300 to 3000 nM
N#Cc1cc(-c2c[nH]c3ncc(-c4cnn(C5CCNCC5)c4)cc23)cnc1OC1CCOCC1 [Compound A18, 5-[5-[1-(4-piperidyl)pyrazol-4-yl]-1H-pyrrolo[2,3-b]pyridin-3-yl]-2-tetrahydropyran-4-yloxypyridine-3-carbonitrile] | < 300 nM | < 300 nM
CN1CCC(n2cc(-c3cnc4[nH]cc(-c5ccc(OC6CCOCC6)c(C#N)c5)c4c3)cn2)CC1 [Compound A20, 5-[5-[1-(1-methyl-4-piperidyl)pyrazol-4-yl]-1H-pyrrolo[2,3-b]pyridin-3-yl]-2-tetrahydropyran-4-yloxybenzonitrile] | < 300 nM | < 300 nM
N#Cc1cc(-c2c[nH]c3ncc(OCCN4CCOCC4)cc23)ccc1OC1CCOCC1 [Compound A21, 5-[5-(2-morpholinoethoxy)-1H-pyrrolo[2,3-b]pyridin-3-yl]-2-tetrahydropyran-4-yloxybenzonitrile] | < 300 nM | < 300 nM
N#Cc1cc(-c2c[nH]c3ncc(-c4cn(C5CCNCC5)nn4)cc23)ccc1OC1CCOCC1 [Compound A22, 5-[5-[1-(4-piperidyl)triazol-4-yl]-1H-pyrrolo[2,3-b]pyridin-3-yl]-2-tetrahydropyran-4-yloxybenzonitrile] | < 300 nM | < 300 nM
CN1CCC(n2cc(-c3cnc4[nH]cc(-c5ccc(OC6CCOCC6)c(C#N)c5)c4c3)nn2)CC1 [Compound A23, 5-[5-[1-(1-methyl-4-piperidyl)triazol-4-yl]-1H-pyrrolo[2,3-b]pyridin-3-yl]-2-tetrahydropyran-4-yloxybenzonitrile] | < 300 nM | < 300 nM
CC1(COc2ccc(-c3c[nH]c4ncc(-c5cnn(C6CCNCC6)c5)cc34)cc2C#N)COC1 [Compound A24, 2-[(3-Methyloxetan-3-yl)methoxy]-5-[5-[1-(4-piperidyl)pyrazol-4-yl]-1H-pyrrolo[2,3-b]pyridin-3-yl]-benzonitrile] | < 300 nM | < 300 nM
N#Cc1cc(-c2c[nH]c3ncc(-c4cnn(C5COC5)c4)cc23)ccc1OC1CCOCC1 [Compound A26, 5-[5-[1-(Oxetan-3-yl)pyrazol-4-yl]-1H-pyrrolo[2,3-b]-pyridin-3-yl]-2-tetrahydropyran-4-yloxybenzonitrile] | < 300 nM | < 300 nM
N#Cc1cc(-c2c[nH]c3ncc(-c4cn(CCN5CCCC5)nn4)cc23)ccc1OC1CCOCC1 [Compound A27, 5-[5-[1-(2-Pyrrolidin-1-ylethyl)triazol-4-yl]-1H-pyrrolo-[2,3-b]pyridin-3-yl]-2-tetrahydropyran-4-yloxybenzo-nitrile] | < 300 nM | < 300 nM
Cn1cc(-c2cnc3[nH]cc(-c4cnc(OC5CCOCC5)c(C#N)c4)c3c2)cn1 [Compound A30, 5-[5-(1-Methylpyrazol-4-yl)-1H-pyrrolo[2,3-b]pyridin-3-yl]-2-tetrahydropyran-4-yloxypyridine-3-carbonitrile] | < 300 nM | < 300 nM
